According to PubChem BioAssay (NCI):
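Cells were grown in 96-well plates and exposed to each compound for 48 hours at five concentrations; endpoints were interpolated linearly between bracketing concentrations, or set to the highest concentration if not reached. The concentration for full growth arrest is given as TGI.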

Assays:
Test in all cases: growth of human tumour cells (NCI), 48 h
[1] = test system: HCT-116 colon
[2] = test system: UO-31 renal
[3] = test system: MCF7 breast
[4] = test system: OVCAR-4 ovarian
[5] = test system: A549 NSCLC
[6] = test system: HL-60(TB) leukemia
[7] = test system: SF-268 CNS
[8] = test system: HOP-62 NSCLC
[9] = test system: SR leukemia
[10] = test system: SK-MEL-5 melanoma
[11] = test system: NCI-H226 lung
[12] = test system: RPMI-8226 leukemia
[13] = test system: MDA-MB-231 breast
[14] = test system: M14 melanoma
[15] = test system: MOLT-4 leukemia
[16] = test system: HT29 colon
[17] = test system: OVCAR-3 ovarian
[18] = test system: HCC-2998 colon
[19] = test system: K-562 leukemia
[20] = test system: CAKI-1 renal
[21] = test system: MDA-N
[22] = test system: HS 578T breast
[23] = test system: NCI-H522 lung
[24] = test system: SK-OV-3 ovarian
[25] = test system: SK-MEL-2 melanoma
[26] = test system: SF-295 CNS
[27] = test system: ACHN renal
[28] = test system: IGROV1 ovarian
[29] = test system: BT-549 breast
[30] = test system: RXF 393 renal
[31] = test system: EKVX NSCLC
[32] = test system: DU-145 prostate
[33] = test system: 786-0 renal
[34] = test system: HCT-15 colon
[35] = test system: NCI/ADR-RES ovarian
[36] = test system: T-47D breast
[37] = test system: UACC-257 melanoma
[38] = test system: NCI-H460 lung
[39] = test system: U251 CNS
[40] = test system: NCI-H23 lung
[41] = test system: LOX IMVI melanoma
[42] = test system: PC-3 prostate
[43] = test system: OVCAR-5 ovarian
[44] = test system: KM12 colon
[45] = test system: UACC-62 melanoma
[46] = test system: HOP-92 NSCLC
[47] = test system: SNB-75 CNS
[48] = test system: SN12C renal
[49] = test system: SK-MEL-28 melanoma
[50] = test system: MALME-3M melanoma
[51] = test system: SF-539 CNS
[52] = test system: MDA-MB-435
[53] = test system: CCRF-CEM leukemia
[54] = test system: COLO 205 colon
[55] = test system: SNB-19 CNS
[56] = test system: TK-10 renal
[57] = test system: OVCAR-8 ovarian
[58] = test system: SW-620 colon
[59] = test system: A498 renal

## O=C(O)c1ccccc1CC1Cc2ccccc2C1
[1]
  TGI: > 100 µM
[2]
  TGI: > 100 µM
[3]
  TGI: > 100 µM
[4]
  TGI: > 100 µM
[5]
  TGI: > 100 µM
[6]
  TGI: > 100 µM
[7]
  TGI: > 100 µM
[8]
  TGI: > 100 µM
[9]
  TGI: > 100 µM
[10]
  TGI: > 100 µM
[11]
  TGI: > 100 µM
[12]
  TGI: > 100 µM
[13]
  TGI: > 100 µM
[14]
  TGI: > 100 µM
[15]
  TGI: > 100 µM
[16]
  TGI: > 100 µM
[17]
  TGI: > 100 µM
[18]
  TGI: > 100 µM
[19]
  TGI: > 100 µM
[20]
  TGI: > 100 µM
[21]
  TGI: > 100 µM
[22]
  TGI: > 100 µM
[23]
  TGI: > 100 µM
[24]
  TGI: > 100 µM
[25]
  TGI: > 100 µM
[26]
  TGI: > 100 µM
[27]
  TGI: > 100 µM
[28]
  TGI: > 100 µM
[29]
  TGI: > 100 µM
[30]
  TGI: > 100 µM
[31]
  TGI: > 100 µM
[32]
  TGI: > 100 µM
[33]
  TGI: > 100 µM
[34]
  TGI: > 100 µM
[35]
  TGI: > 100 µM
[36]
  TGI: > 100 µM
[37]
  TGI: > 100 µM
[38]
  TGI: > 100 µM
[39]
  TGI: > 100 µM
[40]
  TGI: > 100 µM
[41]
  TGI: > 100 µM
[42]
  TGI: > 100 µM
[43]
  TGI: > 100 µM
[44]
  TGI: > 100 µM
[45]
  TGI: > 100 µM
[46]
  TGI: > 100 µM
[47]
  TGI: > 100 µM
[48]
  TGI: > 100 µM
[49]
  TGI: > 100 µM
[50]
  TGI: > 100 µM
[51]
  TGI: > 100 µM
[52]
  TGI: > 100 µM
[53]
  TGI: > 100 µM
[54]
  TGI: > 100 µM
[55]
  TGI: > 100 µM
[56]
  TGI: > 100 µM
[57]
  TGI: > 100 µM
[58]
  TGI: > 100 µM

## C=CC(=O)NC(O)(C(=O)OCC)C(F)(F)F (stereo not drawn)
[1]
  TGI: > 100 µM
[2]
  TGI: > 100 µM
[3]
  TGI: > 100 µM
[4]
  TGI: > 100 µM
[5]
  TGI: > 100 µM
[6]
  TGI: > 100 µM
[7]
  TGI: > 100 µM
[8]
  TGI: > 100 µM
[9]
  TGI: > 100 µM
[10]
  TGI: > 100 µM
[11]
  TGI: > 100 µM
[12]
  TGI: > 100 µM
[13]
  TGI: > 100 µM
[14]
  TGI: > 100 µM
[15]
  TGI: > 100 µM
[16]
  TGI: > 100 µM
[17]
  TGI: > 100 µM
[18]
  TGI: > 100 µM
[19]
  TGI: > 100 µM
[20]
  TGI: > 100 µM
[21]
  TGI: > 100 µM
[22]
  TGI: > 100 µM
[23]
  TGI: > 100 µM
[24]
  TGI: > 100 µM
[25]
  TGI: > 100 µM
[26]
  TGI: > 100 µM
[27]
  TGI: > 100 µM
[28]
  TGI: > 100 µM
[29]
  TGI: > 100 µM
[30]
  TGI: > 100 µM
[31]
  TGI: > 100 µM
[32]
  TGI: > 100 µM
[34]
  TGI: > 100 µM
[35]
  TGI: > 100 µM
[36]
  TGI: > 100 µM
[37]
  TGI: > 100 µM
[39]
  TGI: > 100 µM
[40]
  TGI: > 100 µM
[41]
  TGI: > 100 µM
[42]
  TGI: > 100 µM
[43]
  TGI: > 100 µM
[44]
  TGI: > 100 µM
[45]
  TGI: > 100 µM
[46]
  TGI: > 100 µM
[47]
  TGI: > 100 µM
[48]
  TGI: > 100 µM
[49]
  TGI: > 100 µM
[50]
  TGI: > 100 µM
[51]
  TGI: > 100 µM
[52]
  TGI: > 100 µM
[53]
  TGI: > 100 µM
[54]
  TGI: > 100 µM
[55]
  TGI: > 100 µM
[56]
  TGI: > 100 µM
[57]
  TGI: > 100 µM
[58]
  TGI: > 100 µM

## CN(C)c1ccc(/C=C/c2ccc3ccccc3[n+]2C)cc1
[1]
  TGI: 10.9 µM
[2]
  TGI: 9.62 µM
[3]
  TGI: 14.4 µM
[5]
  TGI: 22.5 µM
[6]
  TGI: 3.48 µM
[8]
  TGI: 25.6 µM
[9]
  TGI: 4.34 µM
[10]
  TGI: 13.5 µM
[11]
  TGI: 13.3 µM
[13]
  TGI: 12.6 µM
[14]
  TGI: 17.1 µM
[15]
  TGI: 4.53 µM
[16]
  TGI: 8.46 µM
[17]
  TGI: 15.5 µM
[18]
  TGI: 16.3 µM
[19]
  TGI: > 100 µM
[21]
  TGI: 13 µM
[22]
  TGI: > 100 µM
[24]
  TGI: 60.6 µM
[25]
  TGI: 4.02 µM
[26]
  TGI: 10 µM
[27]
  TGI: 55.3 µM
[28]
  TGI: > 100 µM
[29]
  TGI: 10.5 µM
[30]
  TGI: 9.84 µM
[31]
  TGI: 5.85 µM
[32]
  TGI: 25.5 µM
[33]
  TGI: > 100 µM
[34]
  TGI: 30.4 µM
[35]
  TGI: > 100 µM
[36]
  TGI: 6.26 µM
[38]
  TGI: 12 µM
[39]
  TGI: 20.7 µM
[40]
  TGI: 9.26 µM
[42]
  TGI: 9.84 µM
[43]
  TGI: 26.2 µM
[44]
  TGI: 13.6 µM
[45]
  TGI: 41 µM
[46]
  TGI: 5.19 µM
[48]
  TGI: 15.8 µM
[59]
  TGI: 60.1 µM
[49]
  TGI: 12.7 µM
[50]
  TGI: 11.2 µM
[52]
  TGI: 13.3 µM
[53]
  TGI: 24.6 µM
[55]
  TGI: > 100 µM
[56]
  TGI: 17.7 µM
[57]
  TGI: 4.3 µM
[58]
  TGI: 12.3 µM
